The CheMixHub viscosity set
“And” between values parts separate entries of the source, which are not always exact repeats. Equal values may be shown once. ± gives the uncertainty stated by the source.

Assay: xn = mol fraction of the nth substance listed

CCCCNCCO + CCCCOCCO
viscosity
Settings | 293.15 K | 298.15 K | 303.15 K | 308.15 K | 313.15 K | 318.15 K | 323.15 K
101.3 kPa, x1 = 0.404 | 7.13 ± 0.15 mPa·s | 5.95 ± 0.13 mPa·s | 5.02 ± 0.11 mPa·s | 4.27 ± 0.09 mPa·s | 3.67 ± 0.08 mPa·s | 3.18 ± 0.07 mPa·s | 2.77 ± 0.06 mPa·s
101.3 kPa, x1 = 0.604 | 10.3 ± 0.22 mPa·s | 8.4 ± 0.18 mPa·s | 6.94 ± 0.15 mPa·s | 5.8 ± 0.12 mPa·s | 4.89 ± 0.1 mPa·s | 4.17 ± 0.09 mPa·s | 3.58 ± 0.08 mPa·s
101.33 kPa, x1 = 0.1 | 3.94 ± 0.09 mPa·s and 3.941 ± 0.085 mPa·s | 3.4 ± 0.08 mPa·s and 3.405 ± 0.074 mPa·s | 2.96 ± 0.07 mPa·s and 2.963 ± 0.064 mPa·s | 2.6 ± 0.06 mPa·s and 2.598 ± 0.056 mPa·s | 2.29 ± 0.05 mPa·s and 2.294 ± 0.053 mPa·s | 2.04 ± 0.05 mPa·s and 2.038 ± 0.052 mPa·s | 1.82 ± 0.04 mPa·s and 1.821 ± 0.052 mPa·s
101.33 kPa, x1 = 0.2 | 4.813 ± 0.11 mPa·s | 4.111 ± 0.089 mPa·s | 3.541 ± 0.076 mPa·s | 3.075 ± 0.066 mPa·s | 2.69 ± 0.058 mPa·s | 2.369 ± 0.053 mPa·s | 2.099 ± 0.053 mPa·s
101.33 kPa, x1 = 0.3 | 5.87 ± 0.13 mPa·s and 5.865 ± 0.13 mPa·s | 4.95 ± 0.11 mPa·s and 4.952 ± 0.11 mPa·s | 4.22 ± 0.09 mPa·s and 4.221 ± 0.091 mPa·s | 3.63 ± 0.08 mPa·s and 3.629 ± 0.078 mPa·s | 3.15 ± 0.07 mPa·s and 3.146 ± 0.068 mPa·s | 2.75 ± 0.06 mPa·s and 2.746 ± 0.059 mPa·s | 2.41 ± 0.05 mPa·s and 2.414 ± 0.053 mPa·s
101.33 kPa, x1 = 0.4 | 7.135 ± 0.16 mPa·s | 5.951 ± 0.13 mPa·s | 5.019 ± 0.11 mPa·s | 4.272 ± 0.092 mPa·s | 3.669 ± 0.079 mPa·s | 3.176 ± 0.068 mPa·s | 2.77 ± 0.059 mPa·s
101.33 kPa, x1 = 0.5 | 8.57 ± 0.19 mPa·s and 8.573 ± 0.18 mPa·s | 7.07 ± 0.16 mPa·s and 7.072 ± 0.15 mPa·s | 5.9 ± 0.13 mPa·s and 5.901 ± 0.13 mPa·s | 4.98 ± 0.11 mPa·s and 4.975 ± 0.11 mPa·s | 4.24 ± 0.09 mPa·s and 4.236 ± 0.091 mPa·s | 3.64 ± 0.08 mPa·s and 3.638 ± 0.078 mPa·s | 3.15 ± 0.07 mPa·s and 3.149 ± 0.068 mPa·s
101.33 kPa, x1 = 0.6 | 10.3 ± 0.22 mPa·s | 8.404 ± 0.18 mPa·s | 6.94 ± 0.15 mPa·s | 5.796 ± 0.12 mPa·s | 4.891 ± 0.11 mPa·s | 4.166 ± 0.089 mPa·s | 3.58 ± 0.077 mPa·s
101.33 kPa, x1 = 0.7 | 12.21 ± 0.26 mPa·s | 9.853 ± 0.21 mPa·s | 8.056 ± 0.17 mPa·s | 6.668 ± 0.14 mPa·s | 5.582 ± 0.12 mPa·s | 4.719 ± 0.1 mPa·s | 4.027 ± 0.086 mPa·s
101.33 kPa, x1 = 0.8 | 14.41 ± 0.31 mPa·s | 11.5 ± 0.25 mPa·s | 9.314 ± 0.2 mPa·s | 7.641 ± 0.16 mPa·s | 6.345 ± 0.14 mPa·s | 5.326 ± 0.11 mPa·s | 4.514 ± 0.097 mPa·s
101.33 kPa, x1 = 0.9 | 16.91 ± 0.36 mPa·s | 13.36 ± 0.29 mPa·s | 10.72 ± 0.23 mPa·s | 8.718 ± 0.19 mPa·s | 7.183 ± 0.15 mPa·s | 5.985 ± 0.13 mPa·s | 5.042 ± 0.11 mPa·s

CCNCCO + CCCCOCCO
viscosity, 101.33 kPa
Settings | 293.15 K | 298.15 K | 303.15 K | 308.15 K | 313.15 K | 318.15 K | 323.15 K
x1 = 0.1 | 3.962 ± 0.086 mPa·s | 3.42 ± 0.074 mPa·s | 2.977 ± 0.064 mPa·s | 2.61 ± 0.056 mPa·s | 2.304 ± 0.053 mPa·s | 2.046 ± 0.052 mPa·s | 1.828 ± 0.052 mPa·s
x1 = 0.13 | 3.96 ± 0.09 mPa·s | 3.42 ± 0.08 mPa·s | 2.98 ± 0.07 mPa·s | 2.61 ± 0.06 mPa·s | 2.3 ± 0.1 mPa·s | 2.05 ± 0.05 mPa·s | 1.83 ± 0.04 mPa·s
x1 = 0.2 | 4.804 ± 0.11 mPa·s | 4.103 ± 0.088 mPa·s | 3.536 ± 0.076 mPa·s | 3.07 ± 0.066 mPa·s | 2.685 ± 0.058 mPa·s | 2.365 ± 0.053 mPa·s | 2.096 ± 0.053 mPa·s
x1 = 0.36 | 5.75 ± 0.13 mPa·s | 4.86 ± 0.11 mPa·s | 4.15 ± 0.09 mPa·s | 3.57 ± 0.08 mPa·s | 3.09 ± 0.07 mPa·s | 2.7 ± 0.1 mPa·s | 2.38 ± 0.05 mPa·s
x1 = 0.4 | 5.753 ± 0.12 mPa·s | 4.86 ± 0.11 mPa·s | 4.146 ± 0.089 mPa·s | 3.567 ± 0.077 mPa·s | 3.094 ± 0.066 mPa·s | 2.703 ± 0.058 mPa·s | 2.377 ± 0.053 mPa·s
x1 = 0.5 | 6.822 ± 0.15 mPa·s | 5.698 ± 0.12 mPa·s | 4.811 ± 0.1 mPa·s | 4.101 ± 0.088 mPa·s | 3.527 ± 0.076 mPa·s | 3.057 ± 0.065 mPa·s | 2.67 ± 0.057 mPa·s
x1 = 0.57 | 7.99 ± 0.18 mPa·s | 6.61 ± 0.15 mPa·s | 5.53 ± 0.12 mPa·s | 4.67 ± 0.1 mPa·s | 3.98 ± 0.09 mPa·s | 3.43 ± 0.08 mPa·s | 2.97 ± 0.07 mPa·s
x1 = 0.6 | 7.994 ± 0.17 mPa·s | 6.608 ± 0.14 mPa·s | 5.525 ± 0.12 mPa·s | 4.67 ± 0.1 mPa·s | 3.984 ± 0.085 mPa·s | 3.429 ± 0.073 mPa·s | 2.975 ± 0.064 mPa·s
x1 = 0.7 | 9.303 ± 0.2 mPa·s | 7.606 ± 0.16 mPa·s | 6.3 ± 0.14 mPa·s | 5.278 ± 0.11 mPa·s | 4.466 ± 0.095 mPa·s | 3.815 ± 0.082 mPa·s | 3.288 ± 0.07 mPa·s
x1 = 0.8 | 10.71 ± 0.23 mPa·s and 12.33 ± 0.26 mPa·s | 8.67 ± 0.19 mPa·s and 9.873 ± 0.21 mPa·s | 7.112 ± 0.15 mPa·s and 8.025 ± 0.17 mPa·s | 5.907 ± 0.13 mPa·s and 6.61 ± 0.14 mPa·s | 4.962 ± 0.11 mPa·s and 5.51 ± 0.12 mPa·s | 4.21 ± 0.09 mPa·s and 4.644 ± 0.099 mPa·s | 3.606 ± 0.077 mPa·s and 3.953 ± 0.084 mPa·s
x1 = 0.9 | 14.15 ± 0.3 mPa·s | 11.21 ± 0.24 mPa·s | 9.023 ± 0.19 mPa·s | 7.368 ± 0.16 mPa·s | 6.098 ± 0.13 mPa·s | 5.103 ± 0.11 mPa·s | 4.316 ± 0.092 mPa·s

CCCC[n+]1ccn(C)c1.N#C[C-](C#N)C#N + CCCCn1cc[n+](C)c1.O=S(=O)([N-]S(=O)(=O)C(F)(F)F)C(F)(F)F
Settings | viscosity [mPa·s]
298.15 K, 100 kPa, x2 = 0.751 | 43.15 ± 2.2

CC(C)OCCO + CCCN
viscosity [mPa·s], 101.33 kPa
Settings | 298.15 K | 308.15 K | 318.15 K
x1 = 0.0207 | 0.381 ± 0.004 | 0.347 ± 0.004 | 0.305 ± 0.004
x1 = 0.0475 | 0.413 ± 0.004 | 0.372 ± 0.004 | 0.328 ± 0.004
x1 = 0.0745 | 0.451 ± 0.005 | 0.398 ± 0.004 | 0.35 ± 0.004
x1 = 0.1534 | 0.575 ± 0.006 | 0.493 ± 0.005 | 0.425 ± 0.005
x1 = 0.2413 | 0.732 ± 0.008 | 0.615 ± 0.007 | 0.517 ± 0.006
x1 = 0.2917 | 0.841 ± 0.009 | 0.702 ± 0.007 | 0.578 ± 0.006
x1 = 0.3559 | 0.992 ± 0.01 | 0.808 ± 0.009 | 0.662 ± 0.007
x1 = 0.4223 | 1.147 ± 0.012 | 0.935 ± 0.01 | 0.746 ± 0.008
x1 = 0.4366 | 1.183 ± 0.013 | 0.966 ± 0.01 | 0.767 ± 0.008
x1 = 0.5416 | 1.445 ± 0.016 | 1.145 ± 0.013 | 0.905 ± 0.01
x1 = 0.6413 | 1.681 ± 0.019 | 1.319 ± 0.015 | 1.032 ± 0.012
x1 = 0.7365 | 1.875 ± 0.022 | 1.464 ± 0.017 | 1.142 ± 0.013
x1 = 0.8564 | 2.047 ± 0.024 | 1.577 ± 0.019 | 1.252 ± 0.015
x1 = 0.9246 | 2.077 ± 0.025 | 1.617 ± 0.02 | 1.283 ± 0.016
x2 = 0.0101 | 2.099 ± 0.026 | 1.645 ± 0.021 | 1.309 ± 0.017

CCOCCOCCOCC + CCCN
298.15 K, 101 kPa
Settings | viscosity [mPa·s]
x1 = 0.005 | 0.361 ± 0.007
x1 = 0.0106 | 0.367 ± 0.007
x1 = 0.0197 | 0.379 ± 0.007
x1 = 0.0413 | 0.402 ± 0.007
x1 = 0.0623 | 0.423 ± 0.007
x1 = 0.0897 | 0.451 ± 0.007
x1 = 0.1329 | 0.498 ± 0.007
x1 = 0.1762 | 0.538 ± 0.008
x1 = 0.2138 | 0.572 ± 0.008
x1 = 0.2434 | 0.6 ± 0.008
x1 = 0.2446 | 0.603 ± 0.008
x1 = 0.2849 | 0.636 ± 0.008
x1 = 0.2887 | 0.64 ± 0.008
x1 = 0.3251 | 0.672 ± 0.009
x1 = 0.3686 | 0.709 ± 0.009
x1 = 0.4053 | 0.737 ± 0.009
x1 = 0.4615 | 0.786 ± 0.01
x1 = 0.5261 | 0.848 ± 0.01
x1 = 0.5564 | 0.875 ± 0.01
x1 = 0.6025 | 0.919 ± 0.011
x1 = 0.6358 | 0.951 ± 0.011
x1 = 0.6749 | 0.988 ± 0.012
x1 = 0.7261 | 1.038 ± 0.012
x1 = 0.7852 | 1.09 ± 0.013
x1 = 0.8437 | 1.152 ± 0.014
x1 = 0.8917 | 1.201 ± 0.014
x1 = 0.9396 | 1.235 ± 0.015
x1 = 0.9698 | 1.248 ± 0.015
